The structures appear in SMILES notation. Like-named read-outs stand apart in the source and are kept apart here.

For one assay, the target named is T1, full length human FXR (Homo sapiens, UniProt Q96RI1).
T1 construct: expressed in transfected cells
T1 sequence (Q96RI1 1-472 isoform Q96RI1-2): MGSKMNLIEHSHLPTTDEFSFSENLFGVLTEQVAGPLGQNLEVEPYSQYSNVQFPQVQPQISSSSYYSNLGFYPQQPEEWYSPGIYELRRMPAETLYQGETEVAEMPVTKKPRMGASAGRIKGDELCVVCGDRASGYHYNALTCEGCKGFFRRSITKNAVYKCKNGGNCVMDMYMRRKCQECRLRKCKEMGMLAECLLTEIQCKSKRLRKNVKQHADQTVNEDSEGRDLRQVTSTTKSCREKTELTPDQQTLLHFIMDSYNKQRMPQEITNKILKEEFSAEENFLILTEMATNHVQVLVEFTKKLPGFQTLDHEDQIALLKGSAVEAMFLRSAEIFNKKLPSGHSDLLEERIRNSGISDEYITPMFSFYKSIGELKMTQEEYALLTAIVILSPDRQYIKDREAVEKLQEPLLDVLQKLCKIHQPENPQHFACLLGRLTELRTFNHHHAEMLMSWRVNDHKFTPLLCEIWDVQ
T1 sequence (P19793 1-462 partner): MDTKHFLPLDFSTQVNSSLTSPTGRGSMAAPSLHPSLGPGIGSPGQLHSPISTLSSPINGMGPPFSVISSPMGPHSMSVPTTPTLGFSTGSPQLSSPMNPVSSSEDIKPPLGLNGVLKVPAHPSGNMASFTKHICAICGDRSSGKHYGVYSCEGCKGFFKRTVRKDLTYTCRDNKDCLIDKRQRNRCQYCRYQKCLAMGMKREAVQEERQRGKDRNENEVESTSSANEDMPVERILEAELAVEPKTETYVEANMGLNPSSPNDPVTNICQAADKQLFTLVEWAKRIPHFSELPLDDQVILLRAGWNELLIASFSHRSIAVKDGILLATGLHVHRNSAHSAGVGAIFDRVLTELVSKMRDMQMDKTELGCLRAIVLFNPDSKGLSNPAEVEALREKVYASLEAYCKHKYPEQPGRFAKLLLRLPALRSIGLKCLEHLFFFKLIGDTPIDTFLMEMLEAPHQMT
As to the kind of experiment: transactivation of FXR mediated transcription in a HEK293 reporter cell line (luciferase). The conditions noted are these: for Emax: HEK293, read-out: EFFIC AVG (average efficacy, % activity relative to CDCA control agonist), relative to CDCA control agonist; for EC50: HEK293 FXR reporter cell line. In kind it is cell-based. The source says:
Tables 3, 4, 5 and 6 illustrate the preferred compounds according to the invention that can mediate transactivation of FXR mediated transcription in a HEK293 reporter cell line.
Stable HEK293FXR reporter cell lines were generated by stably transfecting with the pTRexDest30 (Invitrogen) derivatives pTRexDest30-hFXR, pTRexDest30-hRXR and the pGL2promoter (Promega) derivative pGL2promoter-FXRRE. The full length human FXR (accession U68233) and the full length human RXRα (accession P19793) were cloned into the pTRexDest30 applying the manufacturer protocols for the Gateway™ system (Invitrogen).
The FXR response elements were cloned (upper case and undrelined). 5′-cccaGGGTGAaTAACCTcggggctctgtccctccaatcccaGGGTGAaTAACCTcggg 3′ (SEQ ID NO. 5) was created from the human IBAB-P promoter (Grober et al 1999, JBC 274, pp. 29749-29754). A stable clone was selected and seeded at a density of […] cells per well in 48 well plates. Luciferase reporter activity was measured in duplicates from extracts of cells after incubating cells in culture medium (DMEM [Gibco-BRL]+10% FCS [PAA laboratories]) for 16 hours (5% CO2, 37° C.) containing 0.5% DMSO (control) or 0.5% DMSO with increasing concentrations of TR0800012996.

The next assay addresses T2, human FXR alpha (NR1H4) (Homo sapiens, UniProt Q96RI1).
T2 construct: agonist activity at the NR1H4 human nuclear receptor; fused on or other part: GST at the N-terminus (pDest15) in the TR-FRET test
T2 sequence (Q96RI1 1-486): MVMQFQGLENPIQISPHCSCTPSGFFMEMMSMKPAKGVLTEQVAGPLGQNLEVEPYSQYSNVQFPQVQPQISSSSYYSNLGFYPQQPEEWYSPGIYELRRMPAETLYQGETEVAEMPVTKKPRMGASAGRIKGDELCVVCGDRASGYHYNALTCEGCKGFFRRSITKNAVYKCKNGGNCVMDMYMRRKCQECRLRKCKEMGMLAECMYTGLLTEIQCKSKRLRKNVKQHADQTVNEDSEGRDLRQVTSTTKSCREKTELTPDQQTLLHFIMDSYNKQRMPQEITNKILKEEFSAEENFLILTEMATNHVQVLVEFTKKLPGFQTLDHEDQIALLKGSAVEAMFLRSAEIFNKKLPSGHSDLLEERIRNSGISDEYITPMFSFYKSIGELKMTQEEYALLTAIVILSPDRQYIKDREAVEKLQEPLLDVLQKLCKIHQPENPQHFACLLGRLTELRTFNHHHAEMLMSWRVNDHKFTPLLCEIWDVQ
Briefly: FXR binding / FXR-Tif 2 coactivator interaction, LANCE TR-FRET. As for the experimental part: In particular, the invention relates to compounds as described above wherein the compounds are capable of binding the NR1H4 receptor protein or a portion thereof according to SEQ ID NOS 1-4 shown in FIGS. 4A-4D, respectively, or a mammalian homologue thereof. The claimed compound can bind to the NR1H4 receptor protein or a portion thereof in a mixture comprising 10-200 ng of NR1H4 receptor protein or a portion thereof, preferably the ligand binding domain, 20 mM Tris/HCl at pH 7.9; 60 mM KCl; 5 mM MgCl2; 160 ng/μl BSA in a total volume of preferably about 25 μl.
For in vitro screening for compounds which influence FXR binding to coactivators, a fragment of the open reading frame of human FXR alpha (NR1H4-(Acc. No:AF384555)) encoding aminoacids 187-472 was amplified by standard RT PCR procedures (see SEQ ID NOS. 1 and 2 in FIGS. 4A and 4B, respectively). The starting material was total RNA derived from human liver. The resulting cDNA obtained after reverse transcription was subsequently cloned using the Gateway™ recombination technology (Invitrogen, USA) into the expression plasmid pDest15 (Invitrogen, USA). This construct was used to express a recombinant GST-FXR fusion protein in E. coli (BL21 strain). A pDEST 17 derivative clone harboring an additional sequence encoding amino acids 548-878 of human TIF2 (Acc. No: XM—011633 RefSeq) was constructed using Gateway™ recombination technology (Invitrogen, USA) in order to obtain a construct which was used to express recombinant His-tagged TIF2 fragment in E. coli. For E. coli expression of both constructs, plasmid DNA was transformed into chemically competent E. coli BL21 (Invitrogen, USA) and cells were grown to an OD600 of 0.4-0.7 before expression was induced by addition of 0.5 mM IPTG according instructions of the manufacturer (Invitrogen). After induction for 8 hours at 30° C., the cells were harvested by centrifugation for 10 minutes at 5000×g. Fusion proteins were affinity purified using Glutathion sepharose (Pharmacia) or Ni-NTA Agarose (QIAGEN) according to the instructions of the respective manufacturer. Recombinant proteins were dialyzed against 20 mM Tris/HCL pH 7.9; 60 mM KCl; 5 mM MgCl2; 1 mM DTT, 0.2 mM PMSF; 10% glycerol. The TIF2 fragment was subsequently biotinylated by addition of 40-120 μl of a biotinamidocaproate N-hydroxysuccinimide-ester (Sigma) solution (20 mg/ml in DMSO). […]
For screening of the compound libraries as provided for by the methods described in Examples 2, 3 and 4 below for substances which influence the FXR/Tif 2 interaction, Perkin Elmer LANCE technology was used. […] For ease of handling and reduction of background from compound fluorescence, LANCE technology makes use of generic fluorophore labels and time resoved detection. […]

`O=C(O)C1CCC(CNc2nc(-c3ccccc3O)c(Cc3c(F)cccc3F)s2)CC1` (stereo not shown) [LN0000006316]: the Emax at full length human FXR (Table 6) was found to be 309%; at full length human FXR (Tables 3-5) it was 110%. In addition, the EC50 at full length human FXR (Tables 3-5) was determined as 0.2 µM.

As for `O=C(O)c1ccc(CNc2nc(-c3ccccc3O)c(Cc3c(F)cccc3F)s2)cc1` [LN0000006317], at full length human FXR (Table 6), the Emax turned out to be 223%. Also, at full length human FXR (Tables 3-5), the Emax worked out at 115% and the EC50 was found to be 1.45 µM.

In the case of `O=C(O)C1CCC(CNc2nc(-c3ccccc3O)c(Cc3cccc(F)c3F)s2)CC1` (stereo not shown) [LN0000006322], the Emax at full length human FXR (Tables 3-5) amounted to 115%.

In the case of `O=C(O)c1ccc(CNc2nc(-c3ccccc3O)c(Cc3cccc(F)c3F)s2)cc1` [LN0000006323], on full length human FXR (Tables 3-5), the Emax came out at 86% and the EC50 turned out to be 0.44 µM.

For the compound `COc1ccccc1Cc1sc(NCC2CCC(C(=O)O)CC2)nc1-c1ccccc1O` (stereo not shown) [LN0000006328], at full length human FXR (Tables 3-5), the Emax turned out to be 116% and the EC50 amounted to 4.5 µM.

With `COc1ccccc1Cc1sc(NCc2ccc(C(=O)O)cc2)nc1-c1ccccc1O` [LN0000006329], at full length human FXR (Tables 3-5), the Emax stood at 105% and the EC50 is 0.73 µM.

With `O=C(O)CCCCCNc1nc(-c2ccccc2O)c(Cc2cccc(F)c2F)s1` [LN0000006346], on full length human FXR (Tables 3-5), the Emax was 63% and the EC50 is 5.12 µM.

As for `COc1ccccc1Cc1sc(NCCCCCC(=O)O)nc1-c1ccccc1O` [LN0000006347], at full length human FXR (Tables 3-5), the Emax was 66% and the EC50 came to 3.1 µM.

With `O=C(O)C1CCC(CNc2nc(-c3cccc(O)c3)c(Cc3c(F)cccc3F)s2)CC1` (stereo not shown) [LN0000006348], at full length human FXR (Tables 3-5), the Emax turned out to be 109% and the EC50 is 2.39 µM.

Regarding `O=C(O)c1ccc(CNc2nc(-c3cccc(O)c3)c(Cc3c(F)cccc3F)s2)cc1` [LN0000006349], on full length human FXR (Tables 3-5), the Emax is 66% and the EC50 came out at 4.05 µM.

For `O=C(O)C1CCC(CNc2nc(-c3cccc(O)c3)c(Cc3c(Cl)cccc3Cl)s2)CC1` (stereo not shown) [LN0000006365], the Emax at full length human FXR (Table 6) is 340%; at full length human FXR (Tables 3-5), 92%. Moreover, on full length human FXR (Tables 3-5), the EC50 was found to be 0.36 µM.

Take `O=C(O)C1CCC(CNc2nc(-c3ccccc3O)c(Cc3c(F)cccc3F)s2)CC1` (stereo not shown) [formula (III)]: the EC50 on human FXR alpha (NR1H4) (read-out: EC50 (effective binding concentration at FXR, half-maximal effective concentration)) stood at 0.2 µM.

In the case of `O=C(O)C1CCC(CNc2nc(-c3cccc(O)c3)c(Cc3c(Cl)cccc3Cl)s2)CC1` (stereo not shown) [formula (IV)], the “agonist activity at the NR1H4 human nuclear receptor” value (“agonist activity” for short) on human FXR alpha (NR1H4) was “active as agonist”.

With `O=C(O)c1ccc(CNc2nc(-c3ccccc3O)c(Cc3cccc(F)c3F)s2)cc1` [formula (V)], the “agonist activity” value on human FXR alpha (NR1H4) was “active as agonist”.

As to `COc1ccccc1Cc1sc(NCc2ccc(C(=O)O)cc2)nc1-c1ccccc1O` [formula (VI)], the “agonist activity” value on human FXR alpha (NR1H4) is recorded as “active as agonist”.

These data come from patent US6974830B2, “NR1H4 nuclear receptor binding compounds” (Phenix Pharmaceuticals AG, priority 2001, dated 2005).
